In US20260209247A1, “Substituted Tricyclic Compounds” (Lupin Limited, priority 2019, published 2026):

How the values were obtained:
[1] = target: T1, protein-protein interaction between hSOS1 and hKRASG12C (Homo sapiens, UniProt Q07889); assay: KRAS-SOS1 interaction assay (HTRF); format: binding; conditions: GST-hSOS1 564-1049aa, HIS-hKRASG12C, read-out: KRAS-SOS1 Interaction inhibition IC50
T1 construct: GST-hSOS1, 564-1049aa expressed and purified in-house
T1 sequence (Q07889 564-1049): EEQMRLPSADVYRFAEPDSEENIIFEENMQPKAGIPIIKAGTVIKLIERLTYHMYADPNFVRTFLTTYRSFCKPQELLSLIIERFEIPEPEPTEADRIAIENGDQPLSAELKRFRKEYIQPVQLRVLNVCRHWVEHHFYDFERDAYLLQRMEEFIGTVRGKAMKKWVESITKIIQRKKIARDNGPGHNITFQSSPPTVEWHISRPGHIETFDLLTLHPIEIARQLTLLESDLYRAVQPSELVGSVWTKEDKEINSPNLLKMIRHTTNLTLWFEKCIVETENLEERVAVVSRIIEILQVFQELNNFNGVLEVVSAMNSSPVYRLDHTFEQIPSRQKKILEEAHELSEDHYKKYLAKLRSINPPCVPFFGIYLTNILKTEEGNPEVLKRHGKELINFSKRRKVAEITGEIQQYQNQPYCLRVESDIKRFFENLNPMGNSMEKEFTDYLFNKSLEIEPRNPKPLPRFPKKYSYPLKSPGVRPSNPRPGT
Protocol: Interaction assay was conducted to evaluate the ability of the compounds to disrupt the protein-protein interactions between hSOS1 and hKRASG12C. Inhibitory effect of compounds on GST-hSOS1, 564-1049aa expressed and purified in-house and HIS-hKRASG12C (R06-32DH, SignalChem) interaction was assessed using HTRF detection technology in biochemical assay. Compounds were pre-incubated with 10-50 nM working solution of hSOS1 per well of a 384 well plate (Perkin Elmer, Cat #6007290) for 10 min at 20° C. in the assay buffer containing 5 mM HEPES, pH 7.4, 150 mM NaCl, 10 mM EDTA, 1 mM DTT, 0.05% BSA fraction V and 0.0025% Igepal. Reaction was initiated by adding 100-300 nM working solution of hKRASG12C in assay buffer. Total assay volume was 15 μL. Reaction was continued for 30-60 min at 20° C. Then detection solution containing MAb Anti-GST-d2 (#61GSTDLA, Cisbio BioAssays) and MAb Anti-HIS-Tb (#61HISTLA, Cisbio BioAssays), all prepared in HTRF detection buffer (#61DB10RDF, Cisbio BioAssays) was added and further incubated for 30-60 min at 20° C. HTRF signal was recorded in PHERAStar microplate reader. Ratio of signal obtained at 665 nm and 620 nm was used to compute the percent inhibition of compound utilizing the following formula: […]

[2] = target: T2, nucleotide exchange on hKRASG12C mediated by hSOS1 (Homo sapiens, UniProt Q07889); assay: Guanine nucleotide exchange assay (GNEA, HTRF); format: biochemical; conditions: HIS-hSOS1 564-1049aa mediated GTP loading onto GST-hKRASG12C 1-169aa, read-out: Guanine nucleotide exchange inhibition IC50
T2 construct: HIS-hSOS1, 564-1049aa mediated GTP loading onto GST-hKRASG12C; His (N); made in house
T2 sequence (Q07889 564-1049): T1 sequence (Q07889 564-1049)
Protocol: Example-154: Guanine nucleotide exchange assay (GNEA) GNEA assay was conducted to evaluate the effects of compounds on the nucleotide exchange on hKRASG12C mediated by hSOS1. Inhibitory effect of compounds on HIS-hSOS1, 564-1049aa mediated GTP loading onto GST-hKRASG12C, 1-169aa both expressed and purified in-house was assessed using HTRF detection technology in biochemical assay. Compounds were pre-incubated with hSOS1 working solution containing 10-50 nM hSOS1 and 200 nM EDA-GTP-DY-647P1 (Custom manufactured, Jena Biosciences) per well of a 384 well plate (Perkin Elmer, Cat #6007290) for 10 min at 20° C. in the assay buffer containing 10 mM HEPES, pH 7.4, 150 mM NaCl, 5 mM MgCl2, 1 mM DTT, 0.05% BSA fraction V and 0.0025% Igepal. Reaction was initiated by adding working solution of hKRASG12C containing 25-125 nM hKRASG12C and MAb Anti-GST-Tb (#61GSTTLA, Cisbio BioAssays) in assay buffer. Total assay volume was 15 μL. Reaction was continued for 30-60 min at 20° C. HTRF signal was recorded in PHERAStar microplate reader. Ratio of signal obtained at 665 nm and 620 nm was used to compute the percent inhibition of compound as follows.

[3] = tested on: pERK after EGF stimulation in DLD1 cells; assay: ERK phosphorylation assay (alphascreen pERK); format: cell-based; conditions: Homo sapiens, DLD-1, 2 h compound, 200 ng/ml hEGF for 5 minutes, read-out: ERK phosphorylation inhibition IC50
Protocol: Compounds were tested for their ability to inhibit pERK after EGF stimulation in DLD1 cells. Cells were seeded at 0.2 million cells per well in 96 well cell binding tissue culture plate in 100 μL complete media and were allowed to settle overnight (16 to 20 h). On the following day, cells were treated with various concentrations of test compounds for 2 h followed by stimulation with 200 ng/ml hEGF (diluted in PBS) for 5 minutes. Cells were then washed once with PBS and lysed in freshly prepared lysis buffer (provided with alphascreen surefire ERK1/2 p-T202/Y204 assay kit, cat no: TGRESB10K, Perkin Elmer). Lysis was carried out in plate shaker for 10-15 mins. Lysate was transferred to […] white opti-plate (Perkin Elmer) and alphascreen for pERK was carried out as per manufacturer's instructions. Plate was read after 2 h incubation in plate shaker at […] 300 RPM, 25-28° C. The difference between the unstimulated and stimulated Vehicle control is considered as 100% ERK phosphorylation, and % inhibition of compounds is calculated accordingly.

SMILES	IC50 [1] [nM]	IC50 [2] [nM]	IC50 [3] [nM]
Cc1nc(N[C@H](C)c2cccc(C(F)(F)C(C)(C)O)c2F)c2cc3c(c(C)c2n1)N(C)C(=O)C3(C)C [Compound 90, (R)-4-((1-(3-(1,1-difluoro-2-hydroxy-2-methylpropyl)-2-fluorophenyl)ethyl)amino)-2,6,6,8,9-pentamethyl-6,8-dihydro-7H-pyrrolo[3,2-g]quinazolin-7-one]	1 to 10	31 to 130	1 to 200
Cc1nc(N[C@H](C)c2cccc(C(F)(F)C(C)(C)O)c2F)c2cc3c(cc2n1)C(C)(C)CC(=O)N3C [Compound 42, (R)-4-((1-(3-(1,1-difluoro-2-hydroxy-2-methylpropyl)-2-fluorophenyl)ethyl)amino)-2,6,9,9-tetramethyl-8,9-dihydropyrido[2,3-g]quinazolin-7(6H)-one]	1 to 10	1 to 30	1 to 200
Cc1nc(N[C@H](C)c2cccc(C(F)(F)C(C)(C)O)c2F)c2cc3c(cc2n1)c(=O)n(C)c(=O)n3C [Compound 29, (R)-9-((1-(3-(1,1-difluoro-2-hydroxy-2-methylpropyl)-2-fluorophenyl)ethyl)amino)-1,3,7-trimethylpyrimido[4,5-g]quinazoline-2,4(1H,3H)-dione]	1 to 10	1 to 30	1 to 200
CO[C@]1(C)C(=O)N(C)c2cc3nc(C)nc(N[C@H](C)c4cccc(C(F)(F)C(C)(C)O)c4F)c3cc21 (racemic) [Compound 96a, (S/R)-4-(((R)-1-(3-(1,1-difluoro-2-hydroxy-2-methylpropyl)-2-fluorophenyl)ethyl)amino)-6-methoxy-2,6,8-trimethyl-6,8-dihydro-7H-pyrrolo[3,2-g]quinazolin-7-one]	11 to 25	31 to 130	1 to 200
Cc1nc(N[C@H](C)c2cccc(C(F)(F)CO)c2F)c2cc3c(cc2n1)C(C)(C)C(=O)N3C [Compound 72, (R)-4-((1-(3-(1,1-difluoro-2-hydroxyethyl)-2-fluorophenyl)ethyl)amino)-2,6,8,8-tetramethyl-6,8-dihydro-7H-pyrrolo[2,3-g]quinazolin-7-one]	1 to 10	1 to 30	
CCC1(C)C(=O)N(C)c2cc3nc(C)nc(N[C@H](C)c4cccc(C(F)(F)C(C)(C)O)c4F)c3cc21 (single isomer, unassigned) [Compound 93b]	1 to 10	31 to 130	1 to 200
Cc1nc(N[C@H](C)c2cccc(C(F)(F)C(C)(O)CF)c2F)c2cc3c(cc2n1)OC(C)(C)C(=O)N3C (stereo partly drawn) [Compound 54, (R&S)-4-(((1R)-1-(2-fluoro-3-(1,1,3-trifluoro-2-hydroxy-2-methylpropyl)phenyl)ethyl)amino)-2,6,8,8-tetramethyl-6H-[1,4]oxazino[3,2-g]quinazolin-7(8H)-one]	1 to 10	1 to 30	1 to 200
Cc1nc(N[C@H](C)c2cccc(C(F)(F)[C@@](C)(O)CO)c2F)c2cc3c(cc2n1)OC(C)(C)C(=O)N3C (single isomer, unassigned) [Compound 23a, 4-(((R/S)-1-(3-((S/R)-1,1-difluoro-2,3-dihydroxy-2-methylpropyl)-2-fluorophenyl)ethyl)amino)-2,6,8,8-tetramethyl-6H-[1,4]oxazino[3,2-g]quinazolin-7(8H)-one]	1 to 10	1 to 30	1 to 200
Cc1nc(N[C@H](C)c2cccc(C(F)(F)C(C)(C)O)c2F)c2cc3c(cc2n1)CC(=O)N3C [Compound 113, (R)-4-((1-(3-(1,1-difluoro-2-hydroxy-2-methylpropyl)-2-fluorophenyl)ethyl)amino)-2,6-dimethyl-6,8-dihydro-7H-pyrrolo[2,3-g]quinazolin-7-one]	1 to 10	31 to 130	
Cc1nc(N[C@H](C)c2cc(N)cc(C(F)(F)F)c2)c2cc3c(cc2n1)OCCN3C [Compound 10, (R)—N-(1-(3-amino-5-(trifluoromethyl)phenyl)ethyl)-2,6-dimethyl-7,8-dihydro-6H-[1,4]oxazino[3,2-g]quinazolin-4-amine]	1 to 10	31 to 130	
Cc1nc(NC(C)c2cc(N)cc(C(F)F)c2)c2cc3c(cc2n1)OCC(=O)N3C (single isomer, unassigned) [Compound 5, (R/S)-4-((1-(3-Amino-5-(difluoromethyl)phenyl)ethyl)amino)-2,6-dimethyl-6H-[1,4]oxazino[3,2-g]quinazolin-7(8H)-one]			1 to 200
CO[C@]1(C(F)(F)F)C(=O)N(C)c2cc3c(N[C@H](C)c4cccc(C(F)(F)C(C)(C)O)c4F)nc(C)nc3cc21 (single isomer, unassigned) [Compound 125b]			1 to 200
COC1(C(F)(F)F)C(=O)N(C)c2cc3c(N[C@H](C)c4cccc(C(F)(F)C(C)(C)O)c4F)nc(C)nc3cc21 (single isomer, unassigned) [Compound 125a]			201 to 500
Cc1nc(N[C@H](C)c2cccc(C3CCCNC3)c2F)c2cc3c(cc2n1)C(C)(C)C(=O)N3C (mixture of isomers) [Compound 133, (R & S)-4-(((R)-1-(2-fluoro-3-((R & S)-piperidin-3-yl)phenyl)ethyl)amino)-2,6,8,8-tetramethyl-6,8-dihydro-7H-pyrrolo[2,3-g]quinazolin-7-one]			201 to 500
Cc1nc(N[C@H](C)c2cccc([C@@](O)(CO)C(F)(F)F)c2F)c2cc3c(cc2n1)OC(C)(C)C(=O)N3C (single isomer, unassigned) [Compound 22b, 4-(((R/S)-1-(2-fluoro-3-((R/S)-1,1,1-trifluoro-2,3-dihydroxypropan-2-yl)phenyl)ethyl)amino)-2,6,8,8-tetramethyl-6H-[1,4]oxazino[3,2-g]quinazolin-7(8H)-one]			201 to 500
CC[C@@]1(OC)C(=O)N(C)c2cc3c(N[C@H](C)c4cccc(C(F)(F)C(C)(C)O)c4F)nc(C)nc3cc21 (single isomer, unassigned) [Compound 126b]			201 to 500
Cc1nc(N[C@H](C)c2cccc(C(F)(F)C(C)(C)O)c2F)c2cc3c(cc2n1)C(=O)N(C)C3(C)C [Compound 114, (R)-4-((1-(3-(1,1-difluoro-2-hydroxy-2-methylpropyl)-2-fluorophenyl)ethyl)amino)-2,6,6,7-tetramethyl-6,7-dihydro-8H-pyrrolo[3,4-g]quinazolin-8-one]			1 to 200
